The text below walks through data of patent publication US11753407B2, “Compounds for treating spinal muscular atrophy” (PTC Therapeutics, Inc., priority 2012, dated 2023).

The subject of data set [1] is SMN2 minigene mRNA (SMN2-A minigene) in HEK293H cells. The data set can be described thus: SMN2 minigene mRNA splicing RT-qPCR assay in cultured cells. The class given is cell-based, human. To be noted: Homo sapiens, HEK293-H; concentration increasing full length SMN2 mRNA 1.5-fold relative to vehicle-treated cells; HEK293H cells with SMN2-A minigene, 24 hours, 7-point concentration data; read-out: EC1.5x for production of full length SMN2 mRNA. The method, boiled down: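 Cells are seeded, left to attach 4-6 h, then dosed with test compound across seven concentrations and incubated 24 h. Lysates undergo RT-qPCR with primers/probe specific to the exon 7-containing minigene transcript, co-amplified with GAPDH. Fold change over vehicle is calculated, and EC1.5× marks the 1.5-fold point.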

For data set [2], the system named is Smn protein in SMA patient fibroblast cells (GM03813). The data set can be described thus: Smn protein assay in cultured cells (SMN HTRF). The class given is cell-based, human. The settings on record: SMA patient fibroblast cells, 48 hours; for EC1.5x for Smn protein expression: 7-point concentration curve, SMN HTRF, concentration producing 1.5 times Smn protein vs DMSO vehicle control; for maximum fold (Fold) increase of Smn protein: 7-point concentration data, fold relative to vehicle control. A digest of the protocol: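 Patient-derived SMA fibroblasts are plated, given compound for 48 h, then lysed in RIPA buffer with protease inhibitors. Lysate Smn is detected by an anti-SMN d2/kryptate HTRF pair incubated overnight. The normalized ΔF is divided by the vehicle ΔF to give fold change, from which EC1.5× and maximum fold are taken.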

Bounds are passed on as bounds.

Turning to `Cc1cn2cc(-c3cc(=O)n4cc(N5CC[C@@H](N(C)C)C5)ccc4n3)cc(F)c2n1` [Compound 274, 7-[(3R)-3-(dimethylamino)pyrrolidin-1-yl]-2-(8-fluoro-2-methylimidazo[1,2-a]pyridin-6-yl)-4H-pyrido[1,2-a]pyrimidin-4-one], the melting point was 300 °C (dec.). For the same compound, the EC (1.5-fold increase) in data set [1] is under 0.1 µM. Further, in data set [2], the “EC1.5x for Smn protein expression” value is “**** (an EC1.5x≤0.3 μM is indicated by four stars (****))” and the “maximum fold (Fold) increase of Smn protein” value (from here on “maximum fold (Fold) increase”) is recorded as “***** (a fold increase >1.65 is indicated by five stars (*****))”.

Consider `COc1ccc(-c2cc(=O)n3cc(N4CCN[C@@H](C)C4)ccc3c2)cc1F` [Compound 104, 2-(3-fluoro-4-methoxyphenyl)-7-[(3S)-3-methylpiperazin-1-yl]-4H-quinolizin-4-one], for which the melting point fell in the range of 188 to 192 °C. The EC (1.5-fold increase) in data set [1] was in the range of 0.3 to 1 µM. For the same compound, the “maximum fold (Fold) increase” value in data set [2] was “*** (a fold increase between >1.35 and ≤1.5 is indicated by three stars (***))”.

Regarding `COc1ccc(-c2cc(=O)n3cc(C4=CCN(CCO)CC4)ccc3n2)cc1OC` [Compound 248, 2-(3,4-dimethoxyphenyl)-7-[1-(2-hydroxyethyl)-1,2,3,6-tetrahydropyridin-4-yl]-4H-pyrido[1,2-a]pyrimidin-4-one], the melting point is 134 to 137 °C. Also, the EC (1.5-fold increase) in data set [1] lay in the range of 0.3 to 1 µM. Moreover, in data set [2], the “EC1.5x for Smn protein expression” value is “*** (an EC1.5× between >0.3 μM and ≤1 μM is indicated by three stars (***))”; the “maximum fold (Fold) increase” value was “**** (a fold increase between >1.5 and ≤1.65 is indicated by four stars (****))”.

The compound `Cn1cc2cc(-c3cc(=O)n4cc(C5CCNCC5)ncc4n3)ccc2n1` [Compound 566, 2-(2-methyl-2H-indazol-5-yl)-7-(piperidin-4-yl)-4H-pyrazino[1,2-a]pyrimidin-4-one] yielded a melting point of 235 to 237 °C. The EC (1.5-fold increase) in data set [1] was under 0.1 µM. Also, in data set [2], the “EC1.5x for Smn protein expression” value is reported as “**** (an EC1.5x≤0.3 μM is indicated by four stars (****))” and the “maximum fold (Fold) increase” value is “***** (a fold increase >1.65 is indicated by five stars (*****))”.

Take `Cc1cn2cc(-c3cc(=O)n4cc(N5CCN(C(C)C)CC5)ccc4n3)cc(Cl)c2n1` [Compound 374, 2-(8-chloro-2-methylimidazo[1,2-a]pyridin-6-yl)-7-[4-(propan-2-yl)piperazin-1-yl]-4H-pyrido[1,2-a]pyrimidin-4-one]: the melting point lay within 287 to 292 °C. For the same compound, the EC (1.5-fold increase) in data set [1] was under 0.1 µM. Moreover, in data set [2], the “EC1.5x for Smn protein expression” value is “**** (an EC1.5x≤0.3 μM is indicated by four stars (****))” and the “maximum fold (Fold) increase” value is given as “***** (a fold increase >1.65 is indicated by five stars (*****))”.

Compound `Cn1cc2cc(-c3cc(=O)n4cc(N5CCNCC5)ncc4n3)ccc2n1` [Compound 586, 2-(2-methyl-2H-indazol-5-yl)-7-(piperazin-1-yl)-4H-pyrazino[1,2-a]pyrimidin-4-one] gave a melting point of 160 to 162 °C. The EC (1.5-fold increase) in data set [1] lay in the range of 0.1 to 0.3 µM. For the same compound, in data set [2], the “EC1.5x for Smn protein expression” value is listed as “**** (an EC1.5x≤0.3 μM is indicated by four stars (****))” and the “maximum fold (Fold) increase” value is “***** (a fold increase >1.65 is indicated by five stars (*****))”.

For `CCc1nc(C)cn2nc(-c3cc(=O)n4cc(C5CCN(C)CC5)ccc4n3)cc12` [Compound 657, 2-(4-ethyl-6-methylpyrazolo[1,5-a]pyrazin-2-yl)-7-(1-methylpiperidin-4-yl)-4H-pyrido[1,2-a]pyrimidin-4-one], the melting point fell in the range of 190 to 192 °C. For the same compound, the EC (1.5-fold increase) in data set [1] is under 0.1 µM. Moreover, in data set [2], the “EC1.5x for Smn protein expression” value was “**** (an EC1.5x≤0.3 μM is indicated by four stars (****))” and the “maximum fold (Fold) increase” value is on record as “***** (a fold increase >1.65 is indicated by five stars (*****))”.

The compound `COc1ccc(-c2cc(=O)n3cc(N4CC5CCC(C4)N5)ccc3n2)cc1OC` [Compound 66, 7-(3,8-diazabicyclo[3.2.1]oct-3-yl)-2-(3,4-dimethoxyphenyl)-4H-pyrido[1,2-a]pyrimidin-4-one] gave a melting point of 158 to 161 °C. The EC (1.5-fold increase) in data set [1] fell in the range of 0.3 to 1 µM. Moreover, in data set [2], the “EC1.5x for Smn protein expression” value was “* (An EC1.5× for Smn protein expression between >3 μM and ≤10 μM is indicated by one star (*))”; the “maximum fold (Fold) increase” value was “*** (a fold increase between >1.35 and ≤1.5 is indicated by three stars (***))”.

In the case of `Cc1cn2cc(-c3cc(=O)n4cc(C5CCN(CCO)CC5)ncc4n3)ccc2n1` [Compound 581, 7-[1-(2-hydroxyethyl)piperidin-4-yl]-2-(2-methylimidazo[1,2-a]pyridin-6-yl)-4H-pyrazino[1,2-a]pyrimidin-4-one], the melting point lay in the range of 250 to 252 °C. In addition, the EC (1.5-fold increase) in data set [1] lay in the range of 0.1 to 0.3 µM. In data set [2], the “EC1.5x for Smn protein expression” value is “*** (an EC1.5× between >0.3 μM and ≤1 μM is indicated by three stars (***))”; the “maximum fold (Fold) increase” value is recorded as “***** (a fold increase >1.65 is indicated by five stars (*****))”.

Consider `CCc1nc(C)cn2nc(-c3cc(=O)n4cc(N5CCN(CC)CC5)ccc4n3)cc12` [Compound 548, 2-(4-ethyl-6-methylpyrazolo[1,5-a]pyrazin-2-yl)-7-(4-ethylpiperazin-1-yl)-4H-pyrido[1,2-a]pyrimidin-4-one], for which the melting point was 250 to 252 °C. Also, in data set [1], the EC (1.5-fold increase) was under 0.1 µM. Besides, in data set [2], the “EC1.5x for Smn protein expression” value is given as “**** (an EC1.5x≤0.3 μM is indicated by four stars (****))” and the “maximum fold (Fold) increase” value was “***** (a fold increase >1.65 is indicated by five stars (*****))”.

Compound `Cc1cn2nc(-c3cc(=O)n4cc(N5CCN6CCC[C@@H]6C5)ccc4n3)cc2c(C)n1` [Compound 337, 2-(4,6-dimethylpyrazolo[1,5-a]pyrazin-2-yl)-7-[(8aR)-hexahydropyrrolo[1,2-a]pyrazin-2(1H)-yl]-4H-pyrido[1,2-a]pyrimidin-4-one] displayed a melting point of 228 to 230 °C. Besides, the EC (1.5-fold increase) in data set [1] was under 0.1 µM. Moreover, in data set [2], the “EC1.5x for Smn protein expression” value is reported as “**** (an EC1.5x≤0.3 μM is indicated by four stars (****))” and the “maximum fold (Fold) increase” value is listed as “***** (a fold increase >1.65 is indicated by five stars (*****))”.

Regarding `CCCc1nc(C)cn2nc(-c3cc(=O)n4cc(C5=CCNCC5)ccc4n3)cc12` [Compound 762, 2-(6-methyl-4-propylpyrazolo[1,5-a]pyrazin-2-yl)-7-(1,2,3,6-tetrahydropyridin-4-yl)-4H-pyrido[1,2-a]pyrimidin-4-one], the melting point lay within 257 to 260 °C. Further, the EC (1.5-fold increase) in data set [1] is under 0.1 µM. For the same compound, in data set [2], the “EC1.5x for Smn protein expression” value is given as “**** (an EC1.5x≤0.3 μM is indicated by four stars (****))” and the “maximum fold (Fold) increase” value is reported as “***** (a fold increase >1.65 is indicated by five stars (*****))”.

As to `O=c1cc(-c2ccccc2)nc2ccc(N3CCNCC3)cn12` [Compound 33, 2-phenyl-7-(piperazin-1-yl)-4H-pyrido[1,2-a]pyrimidin-4-one], the melting point was 151 to 153 °C. In addition, the EC (1.5-fold increase) in data set [1] lay within 1 to 3 µM. Also, the “maximum fold (Fold) increase” value in data set [2] is recorded as “* (A maximum fold increase of ≤1.2 is indicated by one star (*))”.
